One molecule from ChEMBL document CHEMBL5335792, “Chemical exploration of TGR5 functional hot-spots: Synthesis and structure-activity relationships of C7- and C23-Substituted cholic acid derivatives” (Eur J Med Chem, 2023) can be followed below.

Each structure is given as a SMILES string.

This data set is described as follows: physchem. The following applies: 0.15 M sodium salt.

In the case of `C[C@H](CCC(=O)O)[C@H]1CC[C@H]2[C@@H]3[C@H](O)C[C@@H]4C[C@H](O)CC[C@]4(C)[C@H]3C[C@H](O)[C@]12C` [CHOLIC ACID], the solubility was 12 mM.

A word on the solubility: it is the dissolved amount per volume that the medium holds.
